{
  "source": "patent US20060199801A1",
  "about": "“Heterobicyclic compounds used as fungicides” (priority 2003, published 2006)",
  "key": {"[1]": {"test_system": "Alternaria solani", "experiment": "Activity against early blight of tomato caused by Alternaria solani, protective use", "assay_type": "in vivo", "conditions": "250 ppm spray, tomato cultivar Large Fruited St. Pierre, visual rating after 5 days, untreated 80%", "protocol": "(§1) For use examples 1 and 2, the active compounds were formulated as a stock solution 15 with 0.25% by weight of active compound in acetone or dimethyl sulfoxide (DMSO). 1% by weight of the emulsifier Uniperol® EL (wetting agent having emulsifying and dispersant action based on ethoxylated alkylphenols) was added to this solution, and the mixture was diluted with water to the desired concentration.\nActivity Against Early Blight of Tomato Caused by Alternaria solani, Protective Use\nLeaves of potted plants of the tomato cultivar “Large Fruited St. Pierre” were sprayed to runoff point with an aqueous suspension having the concentration of active compound stated below. The next day, the leaves were infected with an aqueous spore suspension of Alternaria solani in a 2% biomalt solution having a density of 0.17×10^6 spores/ml. The plants were then placed in a water-vapor-saturated chamber at 20-22° C. After 5 days, the blight on the untreated but infected control plants had developed to such an extent that the infection could be determined visually in %."}, "[2]": {"test_system": "Erysiphe [syn. Blumeria] graminis forma specialis tritici", "experiment": "Activity against mildew of wheat caused by Erysiphe [syn. Blumeria] graminis forma specialis tritici, protective use", "assay_type": "in vivo", "conditions": "250 ppm spray, wheat seedlings cultivar Newton, visual rating after 7 days, % of entire leaf area, untreated 90%", "protocol": "Activity Against Mildew of Wheat Caused by Erysiphe [syn. Blumeria] graminis form a Specialis tritici, Protective Use\nLeaves of wheat seedlings, grown in pots, of the cultivar “Newton” were sprayed to runoff point with an aqueous suspension having the concentration of active compound stated below. The suspension or emulsion was prepared from a stock solution comprising 5% of active compound, 94% of cyclohexanone and 1% of emulsifier (Tween 20) by dilution with water. 3-5 hours after the spray coating had dried on, the […] of wheat (Erysiphe [syn. Blumeria] graminis form a specialis. tritici). The test plants were then placed in a greenhouse at 20-24° C. and 60-90% relative atmospheric humidity. After 7 days, the extent of the mildew development was determined visually in % infection of the entire leaf area."}, "[3]": {"test_system": "Plasmopara viticola", "experiment": "Activity against Peronospora of grapevines caused by Plasmopara viticola, protective use", "assay_type": "in vivo", "conditions": "250 ppm spray, grapevine cultivar Müller-Thurgau, visual rating of leaf undersides, untreated 90%", "protocol": "as §1\nActivity against Peronospora of Grapevines caused by Plasmopara viticola, Protective Use\nLeaves of potted grapevines of the cultivar “Müller-Thurgau” were sprayed to runoff point with an aqueous suspension having the concentration of active compound stated below. The next day, the undersides of the leaves were inoculated with an aqueous zoospore suspension of Plasmopara viticola. The grapevines were then initially placed in a water-vapor-saturated chamber at 24° C. for 48 hours and then in a greenhouse at 20-30° C. for 5 days. After this period of time, the plants were again placed in a humid chamber for 16 hours to promote sporangiophore eruption. The extent of the development of the infection on the undersides of the leaves was then determined visually."}},
  "data": [
    {"smiles": "CCC(C)C(C)c1c(-c2ccc(F)cc2C)c(C)nn2cnnc12", "note": "(mixture of isomers) [Example 16]", "values": [
      {"measurement": "Infection [%] at 250 ppm", "setting": "[1]", "value": 20, "unit": "%"}
    ]},
    {"smiles": "CCCC(C)c1c(-c2ccc(F)cc2C)c(C)nn2cnnc12", "note": "(racemic) [Example 13]", "values": [
      {"measurement": "Infection [%] at 250 ppm", "setting": "[1]", "value": 10, "unit": "%"}
    ]},
    {"smiles": "CCCC(C)c1c(-c2ccc(C)cc2C)c(C)nn2cnnc12", "note": "(racemic) [Example 14]", "values": [
      {"measurement": "Infection [%] at 250 ppm", "setting": "[2]", "value": 20, "unit": "%"}
    ]},
    {"smiles": "CCCC(C)c1c(-c2ccc(F)cc2F)c(C)nn2cnnc12", "note": "(single isomer, unassigned) [Example 18]", "values": [
      {"measurement": "Infection [%] at 250 ppm", "setting": "[3]", "value": 10, "unit": "%"},
      {"measurement": "Infection [%] at 250 ppm", "setting": "[2]", "value": 7, "unit": "%"}
    ]},
    {"smiles": "CCCC(C)c1c(-c2ccc(C)cc2F)c(C)nn2cnnc12", "note": "(single isomer, unassigned) [Example 19]", "values": [
      {"measurement": "Infection [%] at 250 ppm", "setting": "[2]", "value": 20, "unit": "%"}
    ]},
    {"smiles": "CCC(C)C(C)c1c(-c2ccc(C)cc2F)c(C)nn2cnnc12", "note": "(single isomer, unassigned) [Example 20]", "values": [
      {"measurement": "Infection [%] at 250 ppm", "setting": "[2]", "value": 5, "unit": "%"}
    ]},
    {"smiles": "CCCC(C)c1c(-c2ccc(F)cc2F)c(C)nn2cnnc12", "note": "(single isomer, unassigned) [Example 21]", "values": [
      {"measurement": "Infection [%] at 250 ppm", "setting": "[3]", "value": 3, "unit": "%"},
      {"measurement": "Infection [%] at 250 ppm", "setting": "[2]", "value": 3, "unit": "%"}
    ]},
    {"smiles": "CCC(C)C(C)c1c(-c2ccc(C)cc2F)c(C)nn2cnnc12", "note": "(single isomer, unassigned) [Example 22]", "values": [
      {"measurement": "Infection [%] at 250 ppm", "setting": "[2]", "value": 7, "unit": "%"}
    ]},
    {"smiles": "Cc1nn2cnnc2c(CC(C)C)c1-c1ccccc1", "note": "[Example 1, 7-Phenyl-8-isobutyl-6-methyl-[1,2,4]triazolo[4,3-b]pyridazine]", "values": [
      {"measurement": "Infection [%] at 250 ppm", "setting": "[3]", "value": 20, "unit": "%"},
      {"measurement": "Infection [%] at 250 ppm", "setting": "[1]", "value": 10, "unit": "%"}
    ]},
    {"smiles": "Cc1cc(F)ccc1-c1c(C)nn2cnnc2c1CC(C)C", "note": "[Example 2]", "values": [
      {"measurement": "Infection [%] at 250 ppm", "setting": "[3]", "value": 0, "unit": "%"},
      {"measurement": "Infection [%] at 250 ppm", "setting": "[1]", "value": 15, "unit": "%"}
    ]},
    {"smiles": "CCCCc1c(-c2ccc(F)cc2C)c(C)nn2cnnc12", "note": "[Example 3]", "values": [
      {"measurement": "Infection [%] at 250 ppm", "setting": "[3]", "value": 0, "unit": "%"},
      {"measurement": "Infection [%] at 250 ppm", "setting": "[1]", "value": 25, "unit": "%"}
    ]},
    {"smiles": "CCCCc1c(-c2ccc(F)cc2F)c(C)nn2cnnc12", "note": "[Example 4]", "values": [
      {"measurement": "Infection [%] at 250 ppm", "setting": "[3]", "value": 0, "unit": "%"},
      {"measurement": "Infection [%] at 250 ppm", "setting": "[1]", "value": 10, "unit": "%"}
    ]},
    {"smiles": "CCCCc1c(-c2ccc(C)cc2F)c(C)nn2cnnc12", "note": "[Example 5]", "values": [
      {"measurement": "Infection [%] at 250 ppm", "setting": "[3]", "value": 0, "unit": "%"}
    ]},
    {"smiles": "Cc1nn2cnnc2c(CC(C)C)c1-c1ccc(F)cc1F", "note": "[Example 6]", "values": [
      {"measurement": "Infection [%] at 250 ppm", "setting": "[3]", "value": 0, "unit": "%"}
    ]},
    {"smiles": "Cc1ccc(-c2c(C)nn3cnnc3c2CC(C)C)c(F)c1", "note": "[Example 7]", "values": [
      {"measurement": "Infection [%] at 250 ppm", "setting": "[1]", "value": 20, "unit": "%"}
    ]},
    {"smiles": "Cc1nn2cnnc2c(C2CCCCC2)c1-c1ccc(F)cc1F", "note": "[Example 8]", "values": [
      {"measurement": "Infection [%] at 250 ppm", "setting": "[3]", "value": 0, "unit": "%"},
      {"measurement": "Infection [%] at 250 ppm", "setting": "[1]", "value": 0, "unit": "%"}
    ]},
    {"smiles": "Cc1ccc(-c2c(C)nn3cnnc3c2C2CCCCC2)c(C)c1", "note": "[Example 9]", "values": [
      {"measurement": "Infection [%] at 250 ppm", "setting": "[3]", "value": 20, "unit": "%"}
    ]},
    {"smiles": "Cc1cc(F)ccc1-c1c(C)nn2cnnc2c1C1CCCCC1", "note": "[Example 10]", "values": [
      {"measurement": "Infection [%] at 250 ppm", "setting": "[3]", "value": 0, "unit": "%"}
    ]},
    {"smiles": "Cc1nn2cnnc2c(CCC(C)(C)C)c1-c1ccc(F)cc1F", "note": "[Example 11]", "values": [
      {"measurement": "Infection [%] at 250 ppm", "setting": "[3]", "value": 0, "unit": "%"},
      {"measurement": "Infection [%] at 250 ppm", "setting": "[1]", "value": 20, "unit": "%"}
    ]},
    {"smiles": "Cc1ccc(-c2c(C)nn3cnnc3c2CCC(C)(C)C)c(F)c1", "note": "[Example 12]", "values": [
      {"measurement": "Infection [%] at 250 ppm", "setting": "[3]", "value": 3, "unit": "%"},
      {"measurement": "Infection [%] at 250 ppm", "setting": "[1]", "value": 3, "unit": "%"}
    ]},
    {"smiles": "Cc1ccc(-c2c(C)nn3cnnc3c2CCC(C)(C)C)c(C)c1", "note": "[Example 15]", "values": [
      {"measurement": "Infection [%] at 250 ppm", "setting": "[3]", "value": 3, "unit": "%"},
      {"measurement": "Infection [%] at 250 ppm", "setting": "[2]", "value": 20, "unit": "%"}
    ]},
    {"smiles": "CC1CCN(c2c(-c3c(F)cccc3Cl)c(Cl)nc3nnnn23)CC1", "note": "[Example 23, 5-Chloro-6-(2-chloro-6-fluorophenyl)-7-(4-methylpiperidin-1-yl)-tetrazolo[1,5-a]pyrimidine]", "values": [
      {"measurement": "Infection [%] at 250 ppm", "setting": "[2]", "value": 15, "unit": "%"}
    ]},
    {"smiles": "Cc1nc2c(C#N)ncn2c(N[C@H](C)C(C)C)c1-c1c(F)cc(F)cc1F", "note": "[Example 36]", "values": [
      {"measurement": "Infection [%] at 250 ppm", "setting": "[1]", "value": 7, "unit": "%"}
    ]},
    {"smiles": "Cc1nn2ncnc2c(CC(C)C)c1-c1ccc(F)cc1F", "note": "[Example 38, 7-(2,4-Difluorophenyl)-8-isobutyl-6-methyl-[1,2,4]triazolo[1,5-b]pyridazine]", "values": [
      {"measurement": "melting point", "value": "103 to 105", "unit": "°C"}
    ]}
  ]
}
